Reference: ChEMBL document CHEMBL5053546, “Peptidomimetic analogues of an Arg-Trp-x-x-Trp motif responsible for interaction of translocase MraY with bacteriophage ϕX174 lysis protein E” (Bioorg Med Chem, 2021)
In brackets after ≈: the same amount, converted by molar mass. Activity calls are given as the source filed them. No cut-off for these calls is given here.

Tests used:
Escherichia coli [1] = assay: Antibacterial activity against Escherichia coli K-12 assessed as reduction in bacterial growth incubated overnight by microplate reader analysis; type: functional
Bacillus subtilis [2] = assay: Antibacterial activity against Bacillus subtilis W23 assessed as reduction in bacterial growth incubated overnight by microplate reader analysis; type: functional
Pseudomonas fluorescens = assay: Antibacterial activity against Pseudomonas fluorescence Pf-5 assessed as reduction in bacterial growth incubated overnight by microplate reader analysis; type: functional
Escherichia coli [3] = assay: Inhibition of MraY overexpressed in Escherichia coli membrane using UDP-MurNAc-L-Ala-gamma-D-Glu-L-Lys(N epsilon-dansyl)-D-Ala-D-Ala as substrate at 200 ug/ml by fluoresence enhancement assay; type: cell membranes; details: dose 200.0 µg/ml
Escherichia coli [4] = assay: (§1) Inhibition of Escherichia coli MraY overexpressed in Escherichia coli membrane using UDP-MurNAc-L-Ala-gamma-D-Glu-L-Lys(N epsilon-dansyl)-D-Ala-D-Ala and undecaprenyl phosphate as substrate assessed as reduction in lipid II synthesis at 200 uM incubated for 30 mins in presence of [3H]-UDPGlcNAc by liquid scintillation counting analysis relative to control; type: cell membranes
Pseudomonas aeruginosa [5] = assay: Antibacterial activity against multi drug resistant Pseudomonas aeruginosa NCTC 13437 assessed as reduction in bacterial growth by CLSI protocol based assay; type: functional
Enterobacter cloacae = assay: Antibacterial activity against ESBL positive Enterobacter cloacae NCTC 13405 assessed as reduction in bacterial growth by CLSI protocol based assay; type: functional
Acinetobacter baumannii = assay: Antibacterial activity against multi drug resistant ESBL positive Acinetobacter baumannii NCTC 13420 assessed as reduction in bacterial growth by CLSI protocol based assay; type: functional
Staphylococcus aureus = assay: Antibacterial activity against Staphylococcus aureus MRSA JE2 USA300 assessed as reduction in bacterial growth by CLSI protocol based assay; type: functional
Enterococcus faecalis = assay: Antibacterial activity against high level aminoglycoside resistant Enterococcus faecalis ATCC 51299 assessed as reduction in bacterial growth by CLSI protocol based assay; type: functional
Klebsiella pneumoniae = assay: Antibacterial activity against ESBL positive Klebsiella pneumoniae ATCC 700603 assessed as reduction in bacterial growth by CLSI protocol based assay
Escherichia coli [6] = assay: Inhibition of Escherichia coli MraY overexpressed in Escherichia coli membrane using UDP-MurNAc-L-Ala-gamma-D-Glu-L-Lys(N epsilon-dansyl)-D-Ala-D-Ala as substrate at 200 uM by continuous fluoresence assay relative to control; type: cell membranes
Escherichia coli [7] = assay: Bacteriocidal activity against Escherichia coli at 250 ug/ml incubated for 1 hr followed by alamar blue addition measured after 2 to 3 hrs by fluorescence based analysis; type: functional, organism-based; details: dose 250.0 µg/ml
Escherichia coli [8] = assay: Bacteriostatic activity against Escherichia coli at 250 ug/ml incubated for 1 hr followed by alamar blue addition measured after 2 to 3 hrs by fluorescence based analysis; type: functional, organism-based; details: dose 250.0 µg/ml
Escherichia coli [9] = assay: Antibacterial activity against Escherichia coli K-12 assessed as reduction in bacterial growth by NCCLS protocol based broth dilution method; type: functional
Bacillus subtilis [10] = assay: Antibacterial activity against Bacillus subtilis assessed as reduction in bacterial growth by NCCLS protocol based broth dilution method; type: functional
Pseudomonas aeruginosa [11] = assay: Antibacterial activity against Pseudomonas aeruginosa assessed as reduction in bacterial growth by NCCLS protocol based broth dilution method; type: functional
Escherichia coli [12] = assay: as §1, with “of” for “of Escherichia coli”, “analysis” for “analysis relative to control”; type: cell membranes
Escherichia coli [13] = assay: Inhibition of MraY overexpressed in Escherichia coli membrane using UDP-MurNAc-L-Ala-gamma-D-Glu-L-Lys(N epsilon-dansyl)-D-Ala-D-Ala as substrate at 200 uM by continuous fluoresence assay; type: cell membranes
[14] = Inhibition of MraY overexpressed in Escherichia coli membrane using UDP-MurNAc-L-Ala-gamma-D-Glu-L-Lys(N epsilon-dansyl)-D-Ala-D-Ala as substrate by continuous fluoresence assay; type: cell membranes

Structure (SMILES) | MIC50 (Escherichia coli [1]) [µg/mL] | MIC50 (Bacillus subtilis [2]) [µg/mL] | MIC50 (Pseudomonas fluorescens) [µg/mL] | inhibition (Escherichia coli [3]) | MIC50 (Pseudomonas aeruginosa [5]) [µg/mL] | MIC50 (Enterobacter cloacae) [µg/mL] | MIC50 (Acinetobacter baumannii) [µg/mL] | MIC50 (Staphylococcus aureus) [µg/mL] | MIC50 (Enterococcus faecalis) [µg/mL] | MIC50 (Klebsiella pneumoniae) [µg/mL] | also measured
CCCCCCCCCCOC(=O)[C@H](Cc1c[nH]c2ccccc12)NC(=O)[C@@H](N)CCCNC(=N)N | 3 (≈ 5.99 µM) | 8 (≈ 16 µM) | 3 (≈ 5.99 µM) | inactive |  |  |  |  |  |  | 
CCCCCCC(=O)N(Cc1ccccc1)c1ccc(C(=O)N[C@@H](CCCCN)C(=O)OC)c(OCCc2c[nH]c3ccccc23)c1 | 4 (≈ 6.24 µM) | 28 (≈ 43.7 µM) | > 125 |  | > 256 | > 256 | > 256 | > 256 | 8 (≈ 12.5 µM) | > 256 | inhibition (Escherichia coli [4]): 22%
CCCCCCC(=O)Nc1ccc(C(=O)N[C@@H](CCCCN)C(=O)OC)c(OCc2ccccc2)c1 | 8 (≈ 16.1 µM) | 44 (≈ 88.4 µM) | 125 (≈ 251 µM) |  | > 256 | > 256 | > 256 | > 256 | 16 (≈ 32.2 µM) | > 256 | inhibition (Escherichia coli [6]): 36%
CCCCCCCCOC(=O)[C@H](Cc1c[nH]c2ccccc12)NC(=O)[C@@H](N)CCCNc1ncccn1 | 9 (≈ 17.7 µM) | 10 (≈ 19.7 µM) | 45 (≈ 88.5 µM) | inactive |  |  |  |  |  |  | 
CCCCCCCCOC(=O)[C@H](Cc1c[nH]c2ccccc12)NC(=O)[C@H](CCCNC(=N)N)NC(=O)OC(C)(C)C | 12 (≈ 21 µM) | 8 (≈ 14 µM) | 21 (≈ 36.7 µM) |  |  |  |  |  |  |  | 
CCCCCCOC(=O)[C@H](Cc1c[nH]c2ccccc12)NC(=O)[C@@H](N)CCCNC(=N)N | 37 (≈ 83.2 µM) | 13 (≈ 29.2 µM) | 53 (≈ 119 µM) | inactive |  |  |  |  |  |  | 
CCCCCCCCNC(=O)[C@H](Cc1c[nH]c2ccccc12)NC(=O)[C@@H](N)CCCCN | 17 (≈ 38.3 µM) | 11 (≈ 24.8 µM) | 26 (≈ 58.6 µM) | inactive |  |  |  |  |  |  | Activity (Escherichia coli [7]): Active
CCCCCCCCOC(=O)[C@H](Cc1c[nH]c2ccccc12)NC(=O)[C@@H](N)CCCCN | 2 (≈ 4.5 µM) | 1 (≈ 2.25 µM) | 5 (≈ 11.2 µM) | inactive |  |  |  |  |  |  | Activity (Escherichia coli [7]): Active
CCCCCCCCOC(=O)[C@H](Cc1ccccc1)NC(=O)[C@@H](N)CCCNC(=N)N | 11 (≈ 25.4 µM) | 11 (≈ 25.4 µM) | 64 (≈ 148 µM) | inactive |  |  |  |  |  |  | 
CCCCCCCCOC(=O)[C@H](Cc1c[nH]c2ccccc12)NC(=O)[C@@H](N)CCCNC(=N)N | 5 (≈ 10.6 µM) | 13 (≈ 27.5 µM) | 18 (≈ 38.1 µM) | inactive | > 256 | > 256 | > 256 | > 256 | > 256 | > 256 | Activity (Escherichia coli [8]): Active; MIC50 (Escherichia coli [9]): 31 µg/mL (≈ 65.6 µM); MIC50 (Bacillus subtilis [10]): 8 µg/mL (≈ 16.9 µM); MIC50 (Pseudomonas aeruginosa [11]): 40 µg/mL (≈ 84.6 µM)
CCCCCCCCOC(=O)[C@H](Cc1c[nH]c2ccccc12)NC(=O)[C@H](CCCNC(=N)N)NC(C)=O | 42 (≈ 81.6 µM) | 9 (≈ 17.5 µM) | 19 (≈ 36.9 µM) |  |  |  |  |  |  |  | 
CCCCCCC(=O)N(CCc1c[nH]c2ccccc12)c1ccc(C(=O)N[C@@H](CCCCN)C(=O)OC)c(OCCc2c[nH]c3ccccc23)c1 | 4 (≈ 5.76 µM) | 58 (≈ 83.6 µM) | > 125 |  | > 256 | > 256 | > 256 | > 256 | 16 (≈ 23.1 µM) | > 256 | inhibition (Escherichia coli [4]): 21%
CCCCCCCCc1ccc(C(=O)N[C@@H](CCCNC(=N)N)C(=O)O)c(OCCc2c[nH]c3ccccc23)c1 | 30 (≈ 54.6 µM) | 10 (≈ 18.2 µM) | > 125 |  |  |  |  |  |  |  | inhibition (Escherichia coli [12]): inactive; inhibition (Escherichia coli [13]): inactive
CCCCCCCCOC(=O)[C@H](Cc1c[nH]c2ccccc12)NC(=O)[C@@H](N)Cc1cnc[nH]1 | 8 (≈ 17.6 µM) | 12 (≈ 26.5 µM) | 21 (≈ 46.3 µM) | inactive | 8 (≈ 17.6 µM) | 32 (≈ 70.5 µM) | 64 (≈ 141 µM) | 16 (≈ 35.3 µM) | 8 (≈ 17.6 µM) | 64 (≈ 141 µM) | 
CCCCCCCCNC(=O)[C@H](Cc1c[nH]c2ccccc12)NC(=O)[C@@H](N)CCCNC(=N)N | 3 (≈ 6.36 µM) | 7 (≈ 14.8 µM) | 20 (≈ 42.4 µM) | inactive |  |  |  |  |  |  | Activity (Escherichia coli [7]): Active
CCCCCCC(=O)Nc1ccc(C(=O)N[C@@H](CCCCN)C(=O)OC)c(OCCc2c[nH]c3ccccc23)c1 | 28 (≈ 50.8 µM) | 28 (≈ 50.8 µM) | 56 (≈ 102 µM) |  | > 256 | > 256 | > 256 | > 256 | 64 (≈ 116 µM) | > 256 | inhibition (Escherichia coli [4]): 12%
CCCCCCC(=O)N(Cc1ccccc1)c1ccc(C(=O)N[C@@H](CCCCN)C(=O)OC)c(OCc2ccccc2)c1 | 7 (≈ 11.9 µM) | 12 (≈ 20.4 µM) | 46 (≈ 78.3 µM) |  | > 256 | > 256 | > 256 | > 256 | 16 (≈ 27.2 µM) | > 256 | inhibition (Escherichia coli [6]): 62%; IC50 [14]: 140 µM
CCCCCCCCNC(=O)c1ccc(NC(=O)[C@@H](N)CCCNC(=N)N)c(OCCc2c[nH]c3ccccc23)c1 | > 125 | 10 (≈ 17.7 µM) | > 125 |  |  |  |  |  |  |  | inhibition (Escherichia coli [12]): inactive; inhibition (Escherichia coli [13]): inactive
CCCCCCCCNC(=O)CNC(=O)[C@@H](N)CCCCN | 10 (≈ 31.8 µM) | 2 (≈ 6.36 µM) | 18 (≈ 57.2 µM) | inactive |  |  |  |  |  |  | 
CCCCCCCCOC(=O)[C@H](Cc1ccc(O)cc1)NC(=O)[C@@H](N)CCCNC(=N)N | 118 (≈ 262 µM) | 25 (≈ 55.6 µM) | 124 (≈ 276 µM) | inactive |  |  |  |  |  |  | 
